From ChEMBL document CHEMBL1143035, “Synthesis, antifungal and haemolytic activity of a series of bis(pyridinium)alkanes” (Bioorg Med Chem, 2007)
Converted amounts (≈) assume the structure as drawn. Structures can show the parent of a compound that is named as a salt.

Legend:
[1] = system: Candida albicans; assay: Antifungal activity against Candida albicans ATCC 10231; assay type: functional
[2] = system: Cryptococcus neoformans; assay: Antifungal activity against Cryptococcus neoformans ATCC 90112; assay type: functional
[3] = Cytotoxicity against human erythrocytes assessed as hemolytic activity at 500 uM; assay type: cell-based; details: erythrocyte
[4] = target: T1, Phospholipase B (Cryptococcus neoformans) (UniProt Q9P8P2); assay: Inhibition of phospholipase B activity of PLB1 in Cryptococcus neoformans var. grubii H99 assessed as loss of 1,2-di[1-14C]palmitoyl phosphatidylcholine at 250 uM
T1 sequence (whole entry): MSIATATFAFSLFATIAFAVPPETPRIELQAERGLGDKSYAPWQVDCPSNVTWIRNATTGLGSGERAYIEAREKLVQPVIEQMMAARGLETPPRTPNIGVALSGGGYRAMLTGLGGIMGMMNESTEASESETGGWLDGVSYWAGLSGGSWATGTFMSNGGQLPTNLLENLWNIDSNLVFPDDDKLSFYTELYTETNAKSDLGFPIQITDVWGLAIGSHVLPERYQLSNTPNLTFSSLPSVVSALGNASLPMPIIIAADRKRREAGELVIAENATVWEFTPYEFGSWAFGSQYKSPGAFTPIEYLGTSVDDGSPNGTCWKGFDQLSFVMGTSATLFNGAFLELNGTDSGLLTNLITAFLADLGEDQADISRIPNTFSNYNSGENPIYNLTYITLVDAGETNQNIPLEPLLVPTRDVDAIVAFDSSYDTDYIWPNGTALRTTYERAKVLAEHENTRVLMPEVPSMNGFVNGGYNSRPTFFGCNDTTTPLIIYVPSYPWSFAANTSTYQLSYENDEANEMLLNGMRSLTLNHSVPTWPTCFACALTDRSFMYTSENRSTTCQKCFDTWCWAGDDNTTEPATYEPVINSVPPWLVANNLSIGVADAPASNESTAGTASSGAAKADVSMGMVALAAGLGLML

[5] = system: Lomentospora prolificans; assay: Antifungal activity against Scedosporium prolificans 1-003-040; assay type: functional
[6] = system: Aspergillus flavus; assay: Antifungal activity against Aspergillus flavus ATCC 204 304; assay type: functional
[7] = system: Scedosporium boydii; assay: Antifungal activity against Scedosporium apiospermum 1-003-056; assay type: functional
[8] = system: Aspergillus fumigatus; assay: Antifungal activity against Aspergillus fumigatus ATCC 204 305; assay type: functional
[9] = system: Aspergillus terreus; assay: Antifungal activity against Aspergillus terreus 03-232-378; assay type: functional
[10] = system: Fusarium solani; assay: Antifungal activity against Fusarium solani 04-132-4207; assay type: functional
[11] = target: T1, Phospholipase B (Cryptococcus neoformans); assay: Inhibition of lysophospholipase transacylase activity of PLB1 in Cryptococcus neoformans var. grubii H99 assessed as rate of formation of 1-[14C]palmitoyl lyso phosphatidylcholine at 0.25 uM
[12] = target: T1, Phospholipase B (Cryptococcus neoformans); assay: Inhibition of phospholipase B activity of PLB1 in Cryptococcus neoformans var. grubii H99 assessed as loss of 1,2-di[1-14C]palmitoyl phosphatidylcholine at 2.5 uM
[13] = target: T1, Phospholipase B (Cryptococcus neoformans); assay: Inhibition of lysophospholipase activity of PLB1 in Cryptococcus neoformans var. grubii H99 assessed as loss of 1-[14C]palmitoyl lyso phosphatidylcholine at 250 uM
[14] = target: T1, Phospholipase B (Cryptococcus neoformans); assay: Inhibition of lysophospholipase transacylase activity of PLB1 in Cryptococcus neoformans var. grubii H99 assessed as rate of formation of 1-[14C]palmitoyl lyso phosphatidylcholine at 250 uM
[15] = target: T1, Phospholipase B (Cryptococcus neoformans); assay: Inhibition of lysophospholipase activity of PLB1 in Cryptococcus neoformans var. grubii H99 assessed as loss of 1-[14C]palmitoyl lyso phosphatidylcholine at 2.5 uM
[16] = target: T1, Phospholipase B (Cryptococcus neoformans); assay: Inhibition of phospholipase B activity of PLB1 in Cryptococcus neoformans var. grubii H99 assessed as loss of 1,2-di[1-14C]palmitoyl phosphatidylcholine at 25 uM
[17] = Cytotoxicity against human erythrocytes assessed as hemolytic activity at 50 uM; assay type: cell-based, Erythrocyte; details: read-out: Activity
[18] = target: T1, Phospholipase B (Cryptococcus neoformans); assay: Inhibition of lysophospholipase transacylase activity of PLB1 in Cryptococcus neoformans var. grubii H99 assessed as rate of formation of 1-[14C]palmitoyl lyso phosphatidylcholine at 2.5 uM
[19] = target: T1, Phospholipase B (Cryptococcus neoformans); assay: Inhibition of lysophospholipase activity of PLB1 in Cryptococcus neoformans var. grubii H99 assessed as loss of 1-[14C]palmitoyl lyso phosphatidylcholine at 25 uM
[20] = target: T1, Phospholipase B (Cryptococcus neoformans); assay: Inhibition of phospholipase B activity of PLB1 in Cryptococcus neoformans var. grubii H99 assessed as loss of 1,2-di[1-14C]palmitoyl phosphatidylcholine at 0.25 uM
[21] = target: T1, Phospholipase B (Cryptococcus neoformans); assay: Inhibition of lysophospholipase transacylase activity of PLB1 in Cryptococcus neoformans var. grubii H99 assessed as rate of formation of 1-[14C]palmitoyl lyso phosphatidylcholine at 25 uM
[22] = Cytotoxicity against human erythrocytes assessed as hemolytic activity at 5 uM; assay type: cell-based, Erythrocyte; details: read-out: Activity
[23] = target: T1, Phospholipase B (Cryptococcus neoformans); assay: Inhibition of lysophospholipase activity of PLB1 in Cryptococcus neoformans var. grubii H99 assessed as loss of 1-[14C]palmitoyl lyso phosphatidylcholine at 0.25 uM

| SMILES | MIC [1] [µM] | MIC [2] [µM] | Activity [3] | other results |
| --- | --- | --- | --- | --- |
| [Br-].[Br-].c1cc[n+](CCCCCCCCCC[n+]2ccccc2)cc1 | 88 | 350 | Not Active | – |
| Cc1cc(N)c2ccccc2[n+]1CCCCCCCCCCCC[n+]1c(C)cc(N)c2ccccc21.[Cl-].[Cl-] | 22 | 88 | Not Active | – |
| CN(C)c1cc[n+](CCCCCCCCCCCC[n+]2ccc(N(C)C)cc2)cc1.[Br-].[Br-] | 2.8 | 2.8 | Not Active | inhibition [4]: 40% |
| [Br-].[Br-].c1cc[n+](CCCCCCCC[n+]2ccccc2)cc1 | 175 | > 350 | Not Active | – |
| Cc1cc(N)c2ccccc2[n+]1CCCCCCCCCC[n+]1c(C)cc(N)c2ccccc21.[Cl-].[Cl-] [DEQUALINIUM CHLORIDE] | 5.5 | 11 | Not Active | – |
| Br.Br.N=c1ccn(CCCCCCCCCCn2ccc(=N)cc2)cc1 | 2.8 | 22 | Not Active | – |
| CNc1cc[n+](CCCCCCCCCCCC[n+]2ccc(NC)cc2)cc1.[Br-].[Br-] | 1.4 | 2.8 | Not Active | MIC [5]: 2.8 µM; MIC [6]: 44 µM; MIC [7]: 2.8 µM; MIC [8]: 44 µM; MIC [9]: 11 µM; MIC [10]: 44 µM |
| [Cl-].[Cl-].c1ccc2c(c1)ccc[n+]2CCCCCCCCCCCC[n+]1cccc2ccccc21 | 22 | 11 | Not Active | – |
| [Br-].[Br-].c1cc[n+](CCCCCC[n+]2ccccc2)cc1 | 175 | > 350 | Not Active | – |
| [Br-].[Br-].c1cc[n+](CCCCCCCCCCCC[n+]2ccccc2)cc1 | 44 | 88 | Not Active | – |
| Nc1cc[n+](CCCCCCCCCCCCCCCC[n+]2ccc(N)cc2)cc1.[Br-].[Br-] | 1.4 | 1.4 | Not Active | inhibition [4]: 40% |
| Br.Br.N=c1ccn(CCCCCCCCCCCCn2ccc(=N)cc2)cc1 | 1.4 | 5.5 | Not Active | inhibition [4]: 40% |
| CCCCCCCCN=c1ccn(CCCCCCCCCCn2ccc(=NCCCCCCCC)cc2)cc1 [OCTENIDINE HYDROCHLORIDE] | 1.4 | 0.7 | – | inhibition [11]: 0%; inhibition [12]: 50%; inhibition [13]: 97%; inhibition [14]: 97%; inhibition [15]: 16%; inhibition [16]: 80%; inhibition [4]: 100%; hemolysis at 50 µM [17]: 43%; inhibition [18]: 12%; inhibition [19]: 46%; inhibition [20]: 0%; inhibition [21]: 43%; hemolysis at 5 µM [22]: 9%; inhibition [23]: 0% |
| [Br-].[Br-].c1ccc2c(c1)ccc[n+]2CCCCCCCCCC[n+]1cccc2ccccc21 | 88 | 88 | Not Active | – |
| C[C@@H]1[C@H](O)[C@@H](C)/C=C/C=C/C=C/C=C/C=C/C=C/C=C/[C@H](O[C@@H]2O[C@H](C)[C@@H](O)[C@H](N)[C@@H]2O)C[C@@H]2O[C@](O)(C[C@@H](O)C[C@@H](O)[C@H](O)CC[C@@H](O)C[C@@H](O)CC(=O)O[C@H]1C)C[C@H](O)[C@H]2C(=O)O [AMPHOTERICIN B] | 0.55 (≈ 0.508 µg/mL) | 0.55 (≈ 0.508 µg/mL) | – | MIC [5]: 4.4 µM (≈ 4.07 µg/mL); MIC [6]: 0.55 µM (≈ 0.508 µg/mL); MIC [7]: 0.55 µM (≈ 0.508 µg/mL); MIC [9]: 1.1 µM (≈ 1.02 µg/mL); MIC [10]: 0.28 µM (≈ 0.259 µg/mL) |
| Nc1cccc[n+]1CCCCCCCCCCCC[n+]1ccccc1N.[Br-].[Br-] | 5.5 | 5.5 | Not Active | inhibition [4]: 40% |
| Cc1cc(N)c2ccccc2[n+]1CCCCCCCC[n+]1c(C)cc(N)c2ccccc21.[Br-].[Br-] | 5.5 | 5.5 | Not Active | – |
